Data from patent publication US20200024278A1, “COMPOSITION COMPRISING ANTIBIOTIC COMPOUND AND AN HETEROCYCLIC COMPOUND AND THEIR USE IN PREVENTING OR TREATING BACTERIAL INFECTIONS” (MUTABILIS, priority 2016, published 2020).
Where two headings read alike, the source gives them in different places.

Experiments:
Experiment in all cases: MIC, broth microdilution (CLSI), substance alone or ATB combined with compound at 4 or 8 μg/mL
[1] = test system: ECL P99; type: cell-based, E. cloacae; settings: ECL P99
In short: (§1)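 Broth microdilution; ca-MHB; 5·10^5 CFU/mL; 35° C, 16-20 h; compound alone or fixed 4/8 μg/mL with antibiotic series; endpoint = no visible growth.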

[2] = test system: PAE 105250; type: cell-based, P. aeruginosa; settings: PAE 105250
In short: as §1

[3] = test system: PAE UFR48; type: cell-based, P. aeruginosa; settings: PAE UFR48; for MIC: Pseudomonas aeruginosa
In short: as §1

[4] = test system: PAE UFR90; type: cell-based, P. aeruginosa; settings: PAE UFR90; for MIC: Pseudomonas aeruginosa
In short: as §1

[5] = test system: SAU 29213; type: cell-based, S. aureus; settings: SAU 29213
In short: as §1

[6] = test system: SPN 49619; type: cell-based, S. pneumoniae; settings: SPN 49619
In short: as §1

[7] = antibiotic alone, read-out: MIC ATB alone

`NCC[C@H](O)C(=O)N[C@@H]1C[C@H](N)[C@@H](O[C@H]2O[C@H](CN)[C@@H](O)[C@H](O)[C@H]2O)[C@H](O)[C@H]1O[C@H]1O[C@H](CO)[C@@H](O)[C@H](N)[C@H]1O` [AN, Amikacin, reference compound] was tested, and the “MIC ATB combined with Example 13 @8 μg/ml” value ([1]; with Example 13 at 8 μg/ml) was 0.125 µg/mL, the “MIC ATB combined with Example 14 @8 μg/ml” value ([1]; with Example 14 at 8 μg/ml) was under 0.031 µg/mL and the “MIC ATB combined with Example 15 @4 μgml” value ([1]; with Example 15 at 4 μg/ml) was “<=0.031 μg/mL”. The “MIC ATB combined with Example 16 @4 μg/ml” value ([1]; with Example 16 at 4 μg/ml) was under 0.031 µg/mL, the MIC ([1]; Enterobacter cloacae, antibiotic alone, read-out: MIC ATB alone) was 0.063 µg/mL and the “MIC ATB combined with Example 1 @8 μg/ml” value ([2]; with Example 1 @8 μg/ml) was under 0.031 µg/mL. For the same molecule, the “MIC ATB combined with Example 1 @8 μg/ml” value ([2]; with Example 1 at 8 μg/ml) was under 0.031 µg/mL, the “MIC ATB combined with Example 7 @8 μgml” value ([2]; with Example 7 at 8 μg/ml) was 2 µg/mL and the “MIC ATB combined with Example 9 @4 μg/ml” value ([2]; with Example 9 @4 μg/ml) was 2 µg/mL. The “MIC ATB combined with Example 9 @4 μg/ml” value ([2]; with Example 9 at 4 μg/ml) was 2 µg/mL, the “MIC ATB combined with Example 11 @8 μg/ml” value ([2]; with Example 11 at 8 μg/ml) was 2 µg/mL and the “MIC ATB combined with Example 12 @8 μg/ml” value ([2]; with Example 12 at 8 μg/ml) was 2 µg/mL. The “MIC ATB combined with Example 13 @8 μg/ml” value ([2]; with Example 13 at 8 μg/ml) was 2 µg/mL, the “MIC ATB combined with Example 14 @8 μg/ml” value ([2]; with Example 14 at 8 μg/ml) was 1 µg/mL and the “MIC ATB combined with Example 15 @4 μgml” value ([2]; with Example 15 at 4 μg/ml) was 2 µg/mL. The “MIC ATB combined with Example 16 @4 μg/ml” value ([2]; with Example 16 at 4 μg/ml) was 1 µg/mL, the MIC ([2]; Pseudomonas aeruginosa, antibiotic alone, read-out: MIC ATB alone) was 2 µg/mL and the “MIC ATB combined with Example 1 @8 μg/ml” value ([3]; with Example 1 @8 μg/ml) was under 0.031 µg/mL. For the same molecule, the “MIC ATB combined with Example 1 @8 μg/ml” value ([3]; with Example 1 at 8 μg/ml) was under 0.031 µg/mL, the “MIC ATB combined with Example 7 @8 μgml” value ([3]; with Example 7 at 8 μg/ml) was 32 µg/mL and the “MIC ATB combined with Example 9 @4 μg/ml” value ([3]; with Example 9 @4 μg/ml) was 32 µg/mL. For the same molecule, the “MIC ATB combined with Example 9 @4 μg/ml” value ([3]; with Example 9 at 4 μg/ml) was 32 µg/mL, the “MIC ATB combined with Example 11 @8 μg/ml” value ([3]; with Example 11 at 8 μg/ml) was over 32 µg/mL and the “MIC ATB combined with Example 12 @8 μg/ml” value ([3]; with Example 12 at 8 μg/ml) was 32 µg/mL. The “MIC ATB combined with Example 13 @8 μg/ml” value ([3]; with Example 13 at 8 μg/ml) was 32 µg/mL, the “MIC ATB combined with Example 14 @8 μg/ml” value ([3]; with Example 14 at 8 μg/ml) was 32 µg/mL and the “MIC ATB combined with Example 15 @4 μgml” value ([3]; with Example 15 at 4 μg/ml) was over 32 µg/mL. The “MIC ATB combined with Example 16 @4 μg/ml” value ([3]; with Example 16 at 4 μg/ml) was 32 µg/mL, the MIC [3, 7] was 32 µg/mL and the MIC ([3]; substance alone, read-out: MIC) was 32 µg/mL. The “MIC ATB combined with Example 1 @8 μg/ml” value ([4]; with Example 1 @8 μg/ml) was under 0.031 µg/mL, the “MIC ATB combined with Example 1 @8 μg/ml” value ([4]; with Example 1 at 8 μg/ml) was under 0.031 µg/mL and the “MIC ATB combined with Example 7 @8 μgml” value ([4]; with Example 7 at 8 μg/ml) was 2 µg/mL. For the same molecule, the “MIC ATB combined with Example 9 @4 μg/ml” value ([4]; with Example 9 @4 μg/ml) was 2 µg/mL, the “MIC ATB combined with Example 9 @4 μg/ml” value ([4]; with Example 9 at 4 μg/ml) was 2 µg/mL and the “MIC ATB combined with Example 11 @8 μg/ml” value ([4]; with Example 11 at 8 μg/ml) was 2 µg/mL. The “MIC ATB combined with Example 12 @8 μg/ml” value ([4]; with Example 12 at 8 μg/ml) was 2 µg/mL, the “MIC ATB combined with Example 13 @8 μg/ml” value ([4]; with Example 13 at 8 μg/ml) was 2 µg/mL and the “MIC ATB combined with Example 14 @8 μg/ml” value ([4]; with Example 14 at 8 μg/ml) was 2 µg/mL. The “MIC ATB combined with Example 15 @4 μgml” value ([4]; with Example 15 at 4 μg/ml) was 2 µg/mL, the “MIC ATB combined with Example 16 @4 μg/ml” value ([4]; with Example 16 at 4 μg/ml) was 2 µg/mL and the MIC [4, 7] was 2 µg/mL. For the same molecule, the MIC ([4]; substance alone, read-out: MIC) was 2 µg/mL, the “MIC ATB combined with Example 1 @8 μg/ml” value ([5]; with Example 1 @8 μg/ml) was 4 µg/mL and the “MIC ATB combined with Example 1 @8 μg/ml” value ([5]; with Example 1 at 8 μg/ml) was 4 µg/mL. The “MIC ATB combined with Example 7 @8 μgml” value ([5]; with Example 7 at 8 μg/ml) was 2 µg/mL, the “MIC ATB combined with Example 9 @4 μg/ml” value ([5]; with Example 9 @4 μg/ml) was under 0.031 µg/mL and the “MIC ATB combined with Example 9 @4 μg/ml” value ([5]; with Example 9 at 4 μg/ml) was under 0.031 µg/mL. For the same molecule, the “MIC ATB combined with Example 11 @8 μg/ml” value ([5]; with Example 11 at 8 μg/ml) was under 0.031 µg/mL, the “MIC ATB combined with Example 12 @8 μg/ml” value ([5]; with Example 12 at 8 μg/ml) was under 0.031 µg/mL and the “MIC ATB combined with Example 13 @8 μg/ml” value ([5]; with Example 13 at 8 μg/ml) was 4 µg/mL. For the same molecule, the “MIC ATB combined with Example 14 @8 μg/ml” value ([5]; with Example 14 at 8 μg/ml) was under 0.031 µg/mL, the “MIC ATB combined with Example 15 @4 μgml” value ([5]; with Example 15 at 4 μg/ml) was under 0.031 µg/mL and the “MIC ATB combined with Example 16 @4 μg/ml” value ([5]; with Example 16 at 4 μg/ml) was under 0.031 µg/mL. The MIC ([5]; Staphylococcus aureus, antibiotic alone, read-out: MIC ATB alone) was 2 µg/mL, the “MIC ATB combined with Example 1 @8 μg/ml” value ([6]; with Example 1 @8 μg/ml) was 32 µg/mL and the “MIC ATB combined with Example 1 @8 μg/ml” value ([6]; with Example 1 at 8 μg/ml) was 32 µg/mL. For the same molecule, the “MIC ATB combined with Example 7 @8 μgml” value ([6]; with Example 7 at 8 μg/ml) was over 32 µg/mL, the “MIC ATB combined with Example 9 @4 μg/ml” value ([6]; with Example 9 @4 μg/ml) was under 0.031 µg/mL and the “MIC ATB combined with Example 9 @4 μg/ml” value ([6]; with Example 9 at 4 μg/ml) was under 0.031 µg/mL. The “MIC ATB combined with Example 11 @8 μg/ml” value ([6]; with Example 11 at 8 μg/ml) was 32 µg/mL, the “MIC ATB combined with Example 12 @8 μg/ml” value ([6]; with Example 12 at 8 μg/ml) was 4 µg/mL and the “MIC ATB combined with Example 13 @8 μg/ml” value ([6]; with Example 13 at 8 μg/ml) was over 32 µg/mL. The “MIC ATB combined with Example 14 @8 μg/ml” value ([6]; with Example 14 at 8 μg/ml) was 4 µg/mL, the “MIC ATB combined with Example 15 @4 μgml” value ([6]; with Example 15 at 4 μg/ml) was 32 µg/mL and the “MIC ATB combined with Example 16 @4 μg/ml” value ([6]; with Example 16 at 4 μg/ml) was 16 µg/mL. For the same molecule, the MIC ([6]; Streptococcus pneumoniae, antibiotic alone, read-out: MIC ATB alone) was 32 µg/mL.
